Test results reported in patent publication US20140243302A1, “BRIDGED BICYCLIC COMPOUNDS FOR THE TREATMENT OF BACTERIAL INFECTIONS” (priority 2011, published 2014).

Legend:
Format in all cases: cell-based
[1] = system: Staphylococcus aureus Smith; assay: MIC assay, modified agar dilution (CLSI), S. aureus Smith; settings: for MIC: Staphylococcus aureus, agar dilution, 35° C., 16-20 hr, lowest concentration that completely inhibited growth, read-out: S_aureus_Smith_WT_MIC; for susceptibility of S. aureus Smith based on MIC interpretive standards defined by CLSI: reference antibiotics
In short: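 Agar dilution per CLSI on Mueller Hinton agar (plus 5% horse blood for S. pneumoniae and E. faecium), compound 128 to 0.001 μg/mL in two-fold steps. Spots of ~1×10^4 CFU incubated at 35 °C for 16-20 hr before MIC scoring.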

[2] = system: Streptococcus pneumoniae IID554; assay: MIC assay, modified agar dilution (CLSI), S. pneumoniae IID554; settings: for Strep_Pn_IID554_WT_MIC: agar dilution, MHA with 5% defibrinated horse blood; for susceptibility of S. pneumoniae IID554 based on MIC interpretive standards defined by CLSI: reference antibiotics
Procedure: (§1) The potency of antibacterial agents was measured using the Minimal Inhibitory Concentration (MIC) assay. The assay measures the ability of test agents to inhibit the growth of bacteria on agar-containing medium.
(§2) The bacterial test strains used were exemplified by Staphylococcus aureus Smith, Enterococcus faecium A2373, Streptococcus pneumoniae IID554, and Escherichia coli ATCC 25922. All strains were maintained as frozen stocks held at −80° C. in skim milk. Other bacterial test strains are well known to those skilled in the art and can be used for testing.
(§3) Mueller Hinton Agar (MHA BBL; Becton Dickinson and Company, Sparks, Md.) was used as the medium. MHA was supplemented with 5% defibrinated horse blood (DHB; Nippon Biotest Laboratories inc.) to support the growth of S. pneumoniae and E. faecium.
(§4) MIC values were determined using a modified agar dilution procedure described by the Clinical and Laboratory Standards Institute (CLSI; Methods for Dilution Antimicrobial Susceptibility Tests for Bacteria That Grow Aerobically; Approved Standard—Eighth Edition. CLSI document M07-A8 [ISBN 1-56238-689-1]. Clinical and Laboratory Standards Institute, 940 West Valley Road, Suite 1400, Wayne, Pa. 19087-1898 USA, 2009).
(§5) Stock solutions (6.4 mgmL) of test compounds were prepared in 100% ultrapure dimethyl sulfoxide (DMSO; source) on the day of the assay. Subsequent serial dilutions were performed to generate solutions with concentrations ranging from 6.4 to 0.0002 mgmL in 100% DMSO.
Agar medium containing test compound was prepared by adding the dilutions of antimicrobial solution to molten MHA at a temperature of 45-50° C. The agar and antimicrobial solution were mixed thoroughly, poured into petri dishes, and allowed to solidify at room temperature. The final concentration of test compounds in the MHA medium ranged from 128 to 0.001 μg/mL with two-fold dilutions. MHA plates lacking antibacterial compound were used for growth controls.
Prior to susceptibility testing, the bacterial isolates were removed from frozen storage, thawed at room temperature, sub-cultured to MHA medium and incubated overnight at 35° C. S. pneumoniae and E. faecium were subcultured on MHA supplemented with 5% DHB at 35° C. with […]. Colonies from each plate were suspended in normal saline. This suspension was adjusted to the turbidity of a 0.5 McFarland standard, 1-2×10^8 colony forming units (CFU) per mL, and diluted 100-fold to 1-2×10^6 CFUmL.
Suspensions of bacterial cultures were applied to the surface of MHA plates containing test compound as well as to a growth control plate lacking test compound using an inoculum-replicating device with 4 mm pins. The replicating device applied 5 uL of the bacterial suspension such that each spot contained approx. 1×10^4 CFU. […]

[3] = system: Escherichia coli ATCC 25922; assay: MIC assay, modified agar dilution (CLSI), E. coli ATCC 25922
Procedure: as §1, §2, §3, §4
(§6) Stock solutions (6.4 mgmL) of test compounds were prepared in 100% ultrapure dimethyl sulfoxide (DMSO; source) on the day of the assay. […]

[4] = system: Pseudomonas aeruginosa PAO1; assay: MIC assay, modified agar dilution (CLSI), P. aeruginosa PAO1
Procedure: as §1, §3, §4, §5
(§7) Agar medium containing test compound was prepared by adding the dilutions of antimicrobial solution to molten MHA at a temperature of 45-50° C. […]

A_bau_IID876 = assay: MIC assay, modified agar dilution (CLSI), A_bau_IID876
Procedure: as §1, §3, §4, §5, §7

[5] = system: Enterococcus faecium A2373; assay: MIC assay, modified agar dilution (CLSI), E. faecium A2373; settings: reference antibiotics
Procedure: as §1, §2, §3, §4, §6

Row | MIC [1] | SMILES | Strep_Pn_IID554_WT_MIC [2] | E_coli_ATCC25922_WT_MIC [3] | P_ae_PAO1_WT_MIC [4] | A_bau_IID876_WT_MIC (A_bau_IID876) | susceptibility of S. aureus Smith based on MIC interpretive standards defined by CLSI [1] | susceptibility of S. pneumoniae IID554 based on MIC interpretive standards defined by CLSI [2] | susceptibility of E. faecium A2373 [5]
1 | 0.063 µg/mL | COc1ccc2ncc(F)c(CC(O)C34CCC(NCc5ccc6c(n5)NC(=O)CO6)(CC3)CO4)c2n1.Cl (single isomer, unassigned) [Example 20a, 6-((1-(2-(3-Fluoro-6-methoxy-1,5-naphthyridin-4-yl)-1-hydroxyethyl)-2-oxabicyclo[2.2.2]octan-4-ylamino)methyl)-2H-pyrido[3,2-b][1,4]oxazin-3(4H)-one Hydrochloride] | 0.250 µg/mL | 4.00 µg/mL | 16.0 µg/mL | 1.00 µg/mL | – | – | –
2 | 0.016 µg/mL | COc1ccc2ncc(F)c(CCC34CCC(NCc5ccc6c(n5)NC(=O)CO6)(CC3)CO4)c2n1.Cl [Example 18, 6-((1-(2-(3-Fluoro-6-methoxy-1,5-naphthyridin-4-yl)ethyl)-2-oxabicyclo[2.2.2]octan-4-ylamino)methyl)-2H-pyrido[3,2-b][1,4]oxazin-3(4H)-one Hydrochloride] | 0.0630 µg/mL | 1.00 µg/mL | 4.00 µg/mL | 0.500 µg/mL | – | – | –
3 | – | CC(=O)NC[C@H]1CN(c2ccc(N3CCOCC3)c(F)c2)C(=O)O1 [linezolid, reference compound] | – | – | – | – | susceptible | susceptible | susceptible
4 | – | CN[C@H](CC(C)C)C(=O)N[C@H]1C(=O)N[C@@H](CC(N)=O)C(=O)N[C@H]2C(=O)N[C@H]3C(=O)N[C@H](C(=O)N[C@H](C(=O)O)c4cc(O)cc(O)c4-c4cc3ccc4O)[C@H](O)c3ccc(c(Cl)c3)Oc3cc2cc(c3O[C@@H]2O[C@H](CO)[C@@H](O)[C@H](O)[C@H]2O[C@H]2C[C@](C)(N)[C@H](O)[C@H](C)O2)Oc2ccc(cc2Cl)[C@H]1O [vancomycin, reference compound] | – | – | – | – | susceptible | susceptible | resistant
